Assay results published in patent publication US20230365556A1, “N-ACYL AMINO ACID COMPOUNDS AND METHODS OF USE” (Pliant Therapeutics, Inc., priority 2016, published 2023).
Where a name gives a salt, the structure may show the parent alone.

These compounds were tested against recombinant human integrin αvβ1 (Homo sapiens (Human), UniProt P05556+P06756) (assay: Solid phase integrin αvβ1 binding assay (fibronectin)). Details: recombinant human integrin αvβ1 coated plate, recombinant fibronectin 2 ug/ml, 2 hours at 25° C., read-out: αvβ1 Inhibition IC50 (nM)-range.
Procedure: Example B2—Solid Phase Integrin αvβ1 Binding Assay
Microplates were coated with recombinant human integrin αvβ1 (2 ug/ml) in PBS (100 ul/well 4° C., overnight). The coating solution was removed, washed with PBS. Plate was blocked with 200 ul/well of Block Buffer (2% BSA in PBS) at 37° C. for 1 h. Dilutions of testing compounds and recombinant fibronectin (2 ug/ml) in binding and washing buffer (50 mM Tris-HCl, ph7.5; 0.1% BSA, 1 mM MnCl2; NaCl 150 mM; 0.02% Tween-20; 1 mM CaCl2); 1 mM MgCl2) were added. The plate was incubated for 2 hours at 25° C., washed, and incubated for 1 hour with Biotin-Anti-fibronectin. Bound antibody was detected by peroxidase-conjugated streptavidin. The IC50 values for testing compounds were calculated by a four-parameter logistic regression.
The compounds tested were compound samples prepared according to procedures described in the Synthetic Examples section, with the stereochemical purity as indicated in the Examples. The compounds tested were predominantly S-configuration at the alpha carbon of the amino acid scaffold, except for compounds 123, 124, and 125 which were predominantly R-configuration at the alpha carbon of the amino acid scaffold.

Sequence of recombinant human integrin αvβ1 (P06756 31-889): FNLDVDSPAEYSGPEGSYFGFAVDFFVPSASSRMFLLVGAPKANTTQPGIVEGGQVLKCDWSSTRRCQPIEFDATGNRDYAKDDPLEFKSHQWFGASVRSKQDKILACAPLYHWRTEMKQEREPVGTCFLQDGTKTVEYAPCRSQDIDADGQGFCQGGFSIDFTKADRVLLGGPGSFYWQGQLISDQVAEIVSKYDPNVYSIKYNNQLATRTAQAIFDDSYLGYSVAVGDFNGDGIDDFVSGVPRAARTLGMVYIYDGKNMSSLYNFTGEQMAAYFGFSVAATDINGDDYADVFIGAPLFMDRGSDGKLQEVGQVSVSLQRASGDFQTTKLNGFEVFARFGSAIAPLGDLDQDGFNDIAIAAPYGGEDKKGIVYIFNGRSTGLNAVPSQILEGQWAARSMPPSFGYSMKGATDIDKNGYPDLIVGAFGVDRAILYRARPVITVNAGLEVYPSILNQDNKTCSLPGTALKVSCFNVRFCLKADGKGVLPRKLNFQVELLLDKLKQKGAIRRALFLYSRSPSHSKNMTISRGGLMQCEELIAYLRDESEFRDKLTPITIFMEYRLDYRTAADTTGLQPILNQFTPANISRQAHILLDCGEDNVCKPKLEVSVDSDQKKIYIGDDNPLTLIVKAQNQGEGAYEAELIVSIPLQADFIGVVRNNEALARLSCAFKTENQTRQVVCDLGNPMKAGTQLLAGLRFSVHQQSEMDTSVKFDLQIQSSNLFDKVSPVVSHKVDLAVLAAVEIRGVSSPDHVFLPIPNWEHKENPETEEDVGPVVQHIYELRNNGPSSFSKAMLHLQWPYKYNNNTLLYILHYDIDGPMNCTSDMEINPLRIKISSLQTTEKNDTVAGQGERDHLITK
Sequence of recombinant human integrin αvβ1 (P06756 891-992 partner): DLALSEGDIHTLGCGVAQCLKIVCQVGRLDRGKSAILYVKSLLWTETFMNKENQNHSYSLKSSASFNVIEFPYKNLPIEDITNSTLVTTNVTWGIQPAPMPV
Sequence of recombinant human integrin αvβ1 (P05556 21-728): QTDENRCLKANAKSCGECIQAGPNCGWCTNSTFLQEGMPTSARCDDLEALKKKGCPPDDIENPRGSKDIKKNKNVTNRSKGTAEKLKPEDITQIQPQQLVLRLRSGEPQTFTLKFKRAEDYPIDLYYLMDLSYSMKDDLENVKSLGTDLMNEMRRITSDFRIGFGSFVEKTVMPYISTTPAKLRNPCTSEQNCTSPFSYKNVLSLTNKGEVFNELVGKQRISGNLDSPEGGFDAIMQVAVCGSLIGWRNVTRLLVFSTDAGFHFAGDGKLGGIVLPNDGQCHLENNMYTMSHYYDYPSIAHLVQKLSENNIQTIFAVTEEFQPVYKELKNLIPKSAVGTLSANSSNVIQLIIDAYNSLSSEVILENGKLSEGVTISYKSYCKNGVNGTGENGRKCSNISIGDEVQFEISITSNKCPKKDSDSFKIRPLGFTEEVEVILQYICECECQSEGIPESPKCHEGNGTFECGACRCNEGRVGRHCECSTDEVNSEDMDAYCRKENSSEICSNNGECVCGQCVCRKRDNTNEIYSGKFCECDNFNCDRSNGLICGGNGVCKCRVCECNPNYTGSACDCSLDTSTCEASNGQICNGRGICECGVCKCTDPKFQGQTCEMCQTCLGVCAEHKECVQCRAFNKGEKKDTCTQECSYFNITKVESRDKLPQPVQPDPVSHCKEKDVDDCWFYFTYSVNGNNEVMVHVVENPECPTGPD

SMILES | IC50
O=C(NC(CCCCCCCc1ccc2c(n1)NCCC2)C(=O)O)c1ccccc1Cl (stereo not shown) [Compound 96] | < 50 nM
O=C(NC(CCCCCCCc1ccc2c(n1)NCCC2)C(=O)O)c1c(Cl)cccc1Cl (stereo not shown) [Compound 65, 2-(2,6-dichlorobenzamido)-9-(5,6,7,8-tetrahydro-1,8-naphthyridin-2-yl)nonanoic acid] | < 50 nM
COc1ccc(C(=O)NC(CCCCCCCc2ccc3c(n2)NCCC3)C(=O)O)cc1 (stereo not shown) [Compound 89] | < 50 nM
O=C(NC(CN1CCC(OCCCc2ccc3c(n2)NCCC3)C1)C(=O)O)c1c(Cl)cccc1Cl (stereo not shown) [Compound 75, 2-(2,6-dichlorobenzamido)-3-(3-(3-(5,6,7,8-tetrahydro-1,8-naphthyridin-2-yl)propoxy)pyrrolidin-1-yl)propanoic acid] | 250 to 1000 nM
O=C(NC(CCCCCCCc1ccc2c(n1)NCCC2)C(=O)O)c1ccc(Cl)cc1 (stereo not shown) [Compound 87] | < 50 nM
O=C(O)C(CCCCCCCc1ccc2c(n1)NCCC2)NC(=O)N1CCn2c(nnc2C(F)(F)F)C1 (stereo not shown) [Compound 97] | < 50 nM
COc1cccc(C(=O)NC(CCCCCCCc2ccc3c(n2)NCCC3)C(=O)O)c1 (stereo not shown) [Compound 93] | < 50 nM
O=C(NC(CCCCCCCc1ccc2c(n1)NCCC2)C(=O)O)c1cccc(F)c1 (stereo not shown) [Compound 92] | < 50 nM
N#Cc1ccc(C(=O)NC(CCCCCCCc2ccc3c(n2)NCCC3)C(=O)O)cc1 (stereo not shown) [Compound 90] | < 50 nM
N#Cc1cccc(C(=O)NC(CCCCCCCc2ccc3c(n2)NCCC3)C(=O)O)c1 (stereo not shown) [Compound 94] | < 50 nM
O=C(NC(CCCCCCCc1ccc2c(n1)NCCC2)C(=O)O)c1cccc(Cl)c1 (stereo not shown) [Compound 91] | < 50 nM
O=C(NC(CCCCCCCc1ccc2c(n1)NCCC2)C(=O)O)c1ccccc1F (stereo not shown) [Compound 95] | < 50 nM
O=C(NC(CCCCCCCc1ccc2c(n1)NCCC2)C(=O)O)c1ccc(F)cc1 (stereo not shown) [Compound 88] | < 50 nM

The remaining lines, values ahead:

IC50 | SMILES
> 1000 nM | O=C(N[C@H](CCCCCCCc1ccc2c(n1)NCCC2)C(=O)O)c1cc(F)cc(C(F)(F)F)c1 [Compound 125]
< 50 nM | O=C(N[C@@H](CCCCCCCc1ccc2c(n1)NCCC2)C(=O)O)c1cc(F)cc(C(F)(F)F)c1 [Compound 122]
< 50 nM | Cc1cc(C)n(-c2cccc(C(=O)N[C@@H](CCCCCCCc3ccc4c(n3)NCCC4)C(=O)O)c2)n1 [Compound 119]
< 50 nM | CC(C)Oc1ccc(C(=O)N[C@@H](CCCCCCCc2ccc3c(n2)NCCC3)C(=O)O)c(Cl)c1 [Compound 117]
> 1000 nM | O=C(N[C@H](CCCCCCCc1ccc2c(n1)NCCC2)C(=O)O)c1cccc(-c2cncs2)c1 [Compound 124]
< 50 nM | O=C(N[C@@H](CCCCCCCc1ccc2c(n1)NCCC2)C(=O)O)c1cc(OC(F)(F)F)ccc1Cl [Compound 118]
< 50 nM | O=C(N[C@@H](CCCCCCCc1ccc2c(n1)NCCC2)C(=O)O)c1cccc(F)c1Cl [Compound 121]
> 1000 nM | Cn1cc(-c2cccc(C(=O)N[C@H](CCCCCCCc3ccc4c(n3)NCCC4)C(=O)O)c2)cn1 [Compound 123]
50 to 250 nM | O=C(N[C@@H](CCCCCCCc1ccc2c(n1)NCCC2)C(=O)O)c1cccc(-c2cncs2)c1 [Compound 126]

The compounds below were run against αvβ1 integrin (αvβ1 expressing CHO cells) (Homo sapiens (Human), UniProt P05556+P06756) (assay: Cell adhesion assay: inhibition of αvβ1 expressing CHO cells attaching to TGFβ1LAP). Details: 1 h at 37° C., crystal violet absorbance 595 nm, read-out: αvβ1 Inhibition IC50 (nM)-range.
Type: cell-based
Procedure: Example B1—Cell Adhesion Assay
In order to determine the potency, the compounds were assessed for their ability to inhibit αvβ1 expressing CHO cells attach to TGFβ1LAP. Microplates were coated overnight with 2 ug/ml TGFβ1LAP at 4° C., and blocked with 2% BSA/PBS for 30 min before the assay. Cells were detached and washed in PBS. After that the cells were resuspended in DMEM at 1.0×10^6 cells/ml, fifty microliter of cell suspension and fifty microliter of compound solution were added into the plate. The plates were incubated for one hour at 37° C. in humidified 5% carbon dioxide. Non-adherent cells were removed by centrifugation top side down at 58 g for 5 min. The attached cells were fixed and stained with 0.5% crystal violet (in 20% methanol and 1% formaldehyde) and the wells washed with PBS. Crystal violet was dissolved in 2% Triton-X in PBS. The relative number of cells in each well was evaluated by the absorbance at 595 nm in a microplate reader (Tecan). IC50 values were determined by non-linear regression with four parameters (Graphpad Prism 7.01, Y=Bottom+(Top−Bottom)/(1+10^((Log IC50−X)*HillSlope)).
The compounds tested were compound samples prepared according to procedures described in the Synthetic Examples section, with the stereochemical purity as indicated in the Examples indicated for Example or Compound No. 1-62. The compounds tested were predominantly S-configuration at the alpha carbon of the amino acid scaffold, except for compounds 123, 124, and 125 which were predominantly R-configuration at the alpha carbon of the amino acid scaffold. “Example or Compound No.” in Table B-1 refers to the compound illustrated in the examples for Example or Compound Nos. 1-62 (the compounds of Examples 1-62 are labeled as Compounds 1-62 in Table 1). “Example or Compound No.” in Table B-1 refers to the compound number as indicated in Table 1 or Table 2 for Example or Compound Nos. 63-126.

Sequence of αvβ1 integrin (αvβ1 expressing CHO cells) (P06756 31-889): as the sequence (P06756 31-889) above
Sequence of αvβ1 integrin (αvβ1 expressing CHO cells) (P06756 891-1048 partner): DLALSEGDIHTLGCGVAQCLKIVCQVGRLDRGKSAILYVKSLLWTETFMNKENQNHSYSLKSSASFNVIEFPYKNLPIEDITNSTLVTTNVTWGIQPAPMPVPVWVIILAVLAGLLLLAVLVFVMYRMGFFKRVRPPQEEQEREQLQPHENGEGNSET
Sequence of αvβ1 integrin (αvβ1 expressing CHO cells) (P05556 21-798): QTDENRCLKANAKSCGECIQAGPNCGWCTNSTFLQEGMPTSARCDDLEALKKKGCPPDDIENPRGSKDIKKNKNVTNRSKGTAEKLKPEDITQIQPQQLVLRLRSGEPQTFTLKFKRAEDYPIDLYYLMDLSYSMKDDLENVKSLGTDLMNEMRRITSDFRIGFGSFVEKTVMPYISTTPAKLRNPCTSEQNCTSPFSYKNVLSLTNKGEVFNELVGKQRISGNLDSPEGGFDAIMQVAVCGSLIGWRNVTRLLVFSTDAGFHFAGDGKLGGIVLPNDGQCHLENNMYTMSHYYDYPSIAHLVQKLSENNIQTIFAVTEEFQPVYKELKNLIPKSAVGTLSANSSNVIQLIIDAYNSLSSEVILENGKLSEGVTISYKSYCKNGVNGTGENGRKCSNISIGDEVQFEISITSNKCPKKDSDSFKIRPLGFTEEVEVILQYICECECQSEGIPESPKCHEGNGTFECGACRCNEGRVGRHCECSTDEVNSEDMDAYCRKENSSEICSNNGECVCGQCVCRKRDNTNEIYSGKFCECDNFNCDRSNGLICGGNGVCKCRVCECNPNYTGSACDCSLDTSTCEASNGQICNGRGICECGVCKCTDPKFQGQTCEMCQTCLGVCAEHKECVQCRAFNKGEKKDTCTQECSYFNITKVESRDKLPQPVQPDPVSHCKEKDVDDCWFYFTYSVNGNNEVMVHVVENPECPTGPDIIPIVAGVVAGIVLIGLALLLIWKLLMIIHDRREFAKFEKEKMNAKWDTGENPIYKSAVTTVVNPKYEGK

SMILES | IC50
N#Cc1ccc(C(=O)N[C@@H](CCCCCCCc2ccc3c(n2)NCCC3)C(=O)O)c(F)c1 [Compound 101] | < 50 nM
N#Cc1ccc(Cl)c(C(=O)N[C@@H](CCCCCCCc2ccc3c(n2)NCCC3)C(=O)O)c1 [Compound 100] | < 50 nM
O=C(N[C@@H](Cc1ccc(OCCCCNC2=NCCCS2)cc1)C(=O)O)c1c(Cl)cccc1Cl [Example 60, (S)-2-(2,6-dichlorobenzamido)-3-(4-(4-((5,6-dihydro-4H-1,3-thiazin-2-yl)amino)butoxy)phenyl)propanoic acid] | < 50 nM
O=C(N[C@@H](CCCCCCCc1ccc2c(n1)NCCC2)C(=O)O)c1ccc2[nH]ncc2c1 [Compound 103] | 50 to 250 nM
O=C(N[C@@H](CCCCCCCc1ccc2c(n1)NCCC2)C(=O)O)c1ccc2nn(C(F)F)cc2c1 [Compound 106] | 250 to 1000 nM
O=C(N[C@@H](CCCCCCCc1ccc2c(n1)NCCC2)C(=O)O)c1ccc2cnn(C(F)F)c2c1 [Compound 105] | 250 to 1000 nM

Continued, values first:

IC50 | SMILES
50 to 250 nM | Cn1cc(-c2ccc(C(=O)N[C@@H](CCCCCCCc3ccc4c(n3)NCCC4)C(=O)O)cc2)cn1 [Compound 113]
50 to 250 nM | O=C(NC(Cc1ccc(COC2CCC(Nc3ccccn3)CC2)cc1)C(=O)O)c1c(Cl)cccc1Cl [Example 31, (S)-2-(2,6-dichlorobenzamido)-3-(4-((((1s,4R)-4-(pyridin-2-ylamino)cyclohexyl)oxy)methyl)phenyl)propanoic acid trifluoroacetate]
< 50 nM | N#Cc1cc(Cl)c(C(=O)N[C@@H](Cc2ccc(OCCCc3ccc4c(n3)NCCC4)cc2)C(=O)O)c(Cl)c1 [Example 5, (S)-2-(2,6-dichloro-4-cyanobenzamido)-3-(4-(3-(5,6,7,8-tetrahydro-1,8-naphthyridin-2-yl)propoxy)phenyl)propanoic acid]
< 50 nM | O=C(N[C@@H](CCCCCCCc1ccc2c(n1)NCCC2)C(=O)O)c1c(Cl)cccc1Cl [Example 19, (S)-2-(2,6-dichlorobenzamido)-9-(5,6,7,8-tetrahydro-1,8-naphthyridin-2-yl)nonanoic acid]
< 50 nM | O=C(NC(Cc1ccc(OCC2CC(Nc3ccccn3)C2)cc1)C(=O)O)c1c(Cl)cccc1Cl [Example 23, (S)-2-(2,6-dichlorobenzamido)-3-(4-(((1s,3R)-3-(pyridin-2-ylamino)cyclobutyl)methoxy)phenyl)propanoic acid]
> 1000 nM | CC(C)(CCNc1ccccn1)Nc1ccc(C[C@H](NC(=O)c2c(Cl)cccc2Cl)C(=O)O)cc1 [Example 26, (S)-2-(2,6-dichlorobenzamido)-3-(4-((2-methyl-4-(pyridin-2-ylamino)butan-2-yl)amino)phenyl)propanoic acid]
< 50 nM | O=C(N[C@@H](Cc1ccc(OCCCc2ccc3c(n2)NCCC3)cc1)C(=O)O)c1ccncc1 [Example 13, (S)-2-(isonicotinamido)-3-(4-(3-(5,6,7,8-tetrahydro-1,8-naphthyridin-2-yl)propoxy)phenyl)propanoic acid]
< 50 nM | O=C(N[C@@H](Cc1ccc(OCCCc2ccc3c(n2)NCCC3)cc1)C(=O)O)c1cc(F)ccc1Cl [Example 36, (2S)-2-[(2-chloro-5-fluoro-benzoyl)amino]-3-[4-[3-(5,6,7,8-tetrahydro-1,8-naphthyridin-2-yl)propoxy]phenyl]propanoic acid]
> 1000 nM | CN1CC(NCCCCCCCC[C@H](NC(=O)c2c(Cl)cccc2Cl)C(=O)O)=NCC1=O [Example 52, (S)-2-(2,6-dichlorobenzamido)-10-((4-methyl-5-oxo-3,4,5,6-tetrahydropyrazin-2-yl)amino)decanoic acid]
< 50 nM | O=C(N[C@@H](Cc1ccc(OCCCc2ccc3c(n2)NCCC3)cc1)C(=O)O)c1ccccc1 [Example 1, (S)-2-benzamido-3-(4-(3-(5,6,7,8-tetrahydro-1,8-naphthyridin-2-yl)propoxy)phenyl)propanoic acid]
< 50 nM | O=C(N[C@@H](Cc1ccc(OCCCc2ccc3c(n2)NCCC3)cc1)C(=O)O)c1c(Cl)cccc1Cl [Example 16, (S)-2-(2,6-dichlorobenzamido)-3-(4-(3-(5,6,7,8-tetrahydro-1,8-naphthyridin-2-yl)propoxy)phenyl)propanoic acid]
< 50 nM | O=C(N[C@@H](Cc1ccc(OCCCc2ccc3c(n2)NCCC3)cc1)C(=O)O)c1ccc(C2CC2)cc1 [Example 34, (2S)-2-[(4-cyclopropylbenzoyl)amino]-3-[4-[3-(5,6,7,8-tetrahydro-1,8-naphthyridin-2-yl)propoxy]phenyl]propanoic acid]
